# From patent US6737383B1, “Herbicidal oxadiazolidines” (priority 1999, dated 2004)
# What was measured:
# pigweed = experiment: Test B pre/postemergence pigweed; format: in vivo, Amaranthus retroflexus
# Method in brief: (§1)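 Test chemicals in a non-phytotoxic solvent mixture with surfactant were sprayed preemergence onto planted seeds and postemergence onto plants 2 to 18 cm tall (1- to 4-leaf stage). After twelve to sixteen days in a greenhouse, injury was visually rated against untreated controls from 0 (no effect) to 10 (complete control).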
# corn = experiment: Test B pre/postemergence corn; format: in vivo, Zea mays
# Method in brief: as §1
# purple nutsedge = experiment: Test B pre/postemergence purple nutsedge; format: in vivo, Cyperus rotundus
# Method in brief: as §1
# surinam grass = experiment: Test B pre/postemergence surinam grass; format: in vivo, Brachiaria decumbens
# Method in brief: as §1
# giant foxtail = experiment: Test B pre/postemergence giant foxtail; format: in vivo, Setaria faberii
# Method in brief: as §1
# morningglory = experiment: Test B pre/postemergence morningglory; format: in vivo, Ipomoea hederacea
# Method in brief: as §1
# rape = experiment: Test B pre/postemergence rape; format: in vivo, Brassica napus
# Method in brief: as §1
# cocklebur = experiment: Test B pre/postemergence cocklebur; format: in vivo, Xanthium strumarium
# Method in brief: as §1
# bedstraw = experiment: Test B pre/postemergence bedstraw; format: in vivo, Galium aparine; conditions: Preemergence
# Method in brief: as §1
# wild oat = experiment: Test B pre/postemergence wild oat; format: in vivo, Avena fatua
# Method in brief: as §1
# crabgrass = experiment: Test B pre/postemergence crabgrass; format: in vivo, Digitaria sanguinalis
# Method in brief: as §1
# sugar beet = experiment: Test B pre/postemergence sugar beet; format: in vivo, Beta vulgaris
# Method in brief: as §1
# soybean = experiment: Test B pre/postemergence soybean; format: in vivo, Glycine max
# Method in brief: as §1
# velvetleaf = experiment: Test B pre/postemergence velvetleaf; format: in vivo, Abutilon theophrasti
# Method in brief: as §1
# wheat = experiment: Test B pre/postemergence wheat; format: in vivo, Triticum aestivum
# Method in brief: as §1
# blackgrass = experiment: Test B pre/postemergence blackgrass; format: in vivo, Alopecurus myosuroides
# Method in brief: as §1
# [1] = Postemergence, Rate 62 g/ha, scale of 0 to 10, 0 is no effect, 10 is complete control
# [2] = Postemergence, Rate 125 g/ha, scale 0 to 10, 0 is no effect, 10 is complete control
# [3] = Postemergence, Rate 500 g/ha, scale 0 to 10, 0 is no effect, 10 is complete control
# [4] = Preemergence, Rate 62 g/ha, scale 0 to 10 (0 no effect, 10 complete control)
# [5] = Preemergence, Rate 125 g/ha, scale 0 to 10, 0 is no effect, 10 is complete control
# [6] = Preemergence, Rate 500 g/ha, scale of 0 to 10 where 0 is no effect and 10 is complete control
# [7] = Rate 250 g/ha, Postemergence, scale of 0 to 10 where 0 is no effect and 10 is complete control
smiles,measurement,setting,value
COCn1c(=O)on(C(=O)N(c2ccc(Cl)cc2)C(C)C)c1=O [Compound 533],Redroot pigweed plant response rating,pigweed; [1],9
same,Redroot pigweed plant response rating,pigweed; [2],9
same,"Plant response rating, Redroot pigweed",pigweed; [3],9
same,Redroot pigweed plant response rating,pigweed; [4],8
same,Redroot pigweed plant response rating,pigweed; [5],8
same,Redroot pigweed plant response rating (0 to 10 scale),"pigweed; Preemergence, Rate 250 g/ha",8
same,Redroot pigweed plant response rating,pigweed; [6],8
same,Corn plant response rating,corn; [1],0
same,Corn plant response rating,corn; [2],0
same,"Plant response rating, Corn",corn; [3],0
same,Corn plant response rating,corn; [4],0
same,Corn plant response rating,corn; [5],0
same,Corn plant response rating (0 to 10 scale),"corn; Preemergence, Rate 250 g/ha",0
same,Corn plant response rating,corn; [6],6
same,"Plant response rating, Corn",corn; [7],0
same,Nutsedge plant response rating,purple nutsedge; [1],0
same,Nutsedge plant response rating,purple nutsedge; [2],0
same,"Plant response rating, Nutsedge",purple nutsedge; [3],0
same,Nutsedge plant response rating,purple nutsedge; [4],0
same,Nutsedge plant response rating,purple nutsedge; [5],0
same,Nutsedge plant response rating,purple nutsedge; [6],0
same,"Plant response rating, Nutsedge",purple nutsedge; [7],0
same,B. signalgrass plant response rating,surinam grass; [1],0
same,B. signalgrass plant response rating,surinam grass; [2],0
same,"Plant response rating, B. signalgrass",surinam grass; [3],4
same,B. signalgrass plant response rating,surinam grass; [4],2
same,B. signalgrass plant response rating,surinam grass; [5],3
same,"B. signalgrass plant response rating (0 to 10 scale, 0 is no effect, 10 is complete control)","surinam grass; Preemergence, Rate 250 g/ha",9
same,B. signalgrass plant response rating,surinam grass; [6],9
same,Giant foxtail plant response rating,giant foxtail; [1],8
same,Giant foxtail plant response rating,giant foxtail; [2],8
same,"Plant response rating, Giant foxtail",giant foxtail; [3],9
same,Giant foxtail plant response rating,giant foxtail; [4],9
same,Giant foxtail plant response rating,giant foxtail; [5],10
same,Giant foxtail plant response rating (0 to 10 scale),"giant foxtail; Preemergence, Rate 250 g/ha",10
same,Giant foxtail plant response rating,giant foxtail; [6],10
same,"Plant response rating, Giant foxtail",giant foxtail; [7],9
same,Morningglory plant response rating,morningglory; [1],4
same,Morningglory plant response rating,morningglory; [2],4
same,"Plant response rating, Morningglory",morningglory; [3],7
same,Morningglory plant response rating,morningglory; [4],0
same,Morningglory plant response rating,morningglory; [5],0
same,Morningglory plant response rating (0 to 10 scale),"morningglory; Preemergence, Rate 250 g/ha",0
same,Morningglory plant response rating,morningglory; [6],0
same,"Plant response rating, Morningglory",morningglory; [7],7
same,Rape plant response rating,rape; [1],0
same,Rape plant response rating,rape; [2],0
same,"Plant response rating, Rape",rape; [3],4
same,Rape plant response rating,rape; [4],0
same,Rape plant response rating,rape; [5],0
same,Rape plant response rating (0 to 10 scale),"rape; Preemergence, Rate 250 g/ha",7
same,Rape plant response rating,rape; [6],7
same,Cocklebur plant response rating,cocklebur; [1],2
same,Cocklebur plant response rating,cocklebur; [2],2
same,"Plant response rating, Cocklebur",cocklebur; [3],4
same,Cocklebur plant response rating,cocklebur; [4],0
same,Cocklebur plant response rating,cocklebur; [5],0
same,Cocklebur plant response rating (0 to 10 scale),"cocklebur; Preemergence, Rate 250 g/ha",0
same,Cocklebur plant response rating,cocklebur; [6],0
same,"Plant response rating, Cocklebur",cocklebur; [7],2
same,Bedstraw plant response rating,"bedstraw; Rate 62 g/ha, scale 0 to 10 (0 no effect, 10 complete control)",0
same,Bedstraw plant response rating,"bedstraw; Rate 125 g/ha, scale 0 to 10, 0 is no effect, 10 is complete control",0
same,Bedstraw plant response rating (0 to 10 scale),bedstraw; Rate 250 g/ha,0
same,Bedstraw plant response rating,"bedstraw; Rate 500 g/ha, scale of 0 to 10 where 0 is no effect and 10 is complete control",0
same,Wild oats plant response rating,wild oat; [1],0
same,Wild oats plant response rating,wild oat; [2],0
same,"Plant response rating, Wild oats",wild oat; [3],0
same,Wild oats plant response rating,wild oat; [4],0
same,Wild oats plant response rating,wild oat; [5],0
same,Wild oats plant response rating (0 to 10 scale),"wild oat; Preemergence, Rate 250 g/ha",9
same,Wild oats plant response rating,wild oat; [6],9
same,Crabgrass plant response rating,crabgrass; [1],3
same,Crabgrass plant response rating,crabgrass; [2],8
same,"Plant response rating, Crabgrass",crabgrass; [3],9
same,Crabgrass plant response rating,crabgrass; [4],9
same,Crabgrass plant response rating,crabgrass; [5],10
same,Crabgrass plant response rating (0 to 10 scale),"crabgrass; Preemergence, Rate 250 g/ha",10
same,Crabgrass plant response rating,crabgrass; [6],10
same,"Plant response rating, Crabgrass",crabgrass; [7],9
same,Sugarbeets plant response rating,sugar beet; [1],0
same,Sugarbeets plant response rating,sugar beet; [2],0
same,"Plant response rating, Sugarbeets",sugar beet; [3],4
same,Sugarbeets plant response rating,sugar beet; [4],3
same,Sugarbeets plant response rating,sugar beet; [5],5
same,Sugarbeets plant response rating (0 to 10 scale),"sugar beet; Preemergence, Rate 250 g/ha",7
same,Sugarbeets plant response rating,sugar beet; [6],7
same,Soybean plant response rating,soybean; [1],4
same,Soybean plant response rating,soybean; [2],4
same,"Plant response rating, Soybean",soybean; [3],4
same,Soybean plant response rating,soybean; [4],0
same,Soybean plant response rating,soybean; [5],0
same,Soybean plant response rating (0 to 10 scale),"soybean; Preemergence, Rate 250 g/ha",0
same,Soybean plant response rating,soybean; [6],0
same,"Plant response rating, Soybean",soybean; [7],4
same,Velvetleaf plant response rating,velvetleaf; [1],0
same,Velvetleaf plant response rating,velvetleaf; [2],4
same,"Plant response rating, Velvetleaf",velvetleaf; [3],8
same,Velvetleaf plant response rating,velvetleaf; [4],0
same,Velvetleaf plant response rating,velvetleaf; [5],0
same,Velvetleaf plant response rating (0 to 10 scale),"velvetleaf; Preemergence, Rate 250 g/ha",5
same,Velvetleaf plant response rating,velvetleaf; [6],5
same,"Plant response rating, Velvetleaf",velvetleaf; [7],4
same,Wheat plant response rating,wheat; [1],0
same,Wheat plant response rating,wheat; [2],0
same,"Plant response rating, Wheat",wheat; [3],2
same,Wheat plant response rating,wheat; [4],0
same,Wheat plant response rating,wheat; [5],0
same,Wheat plant response rating (0 to 10 scale),"wheat; Preemergence, Rate 250 g/ha",0
same,Wheat plant response rating,wheat; [6],0
same,Blackgrass plant response rating,blackgrass; [2],2
same,"Plant response rating, Blackgrass",blackgrass; [3],7
same,Blackgrass plant response rating,blackgrass; [4],4
same,Blackgrass plant response rating,blackgrass; [5],8
same,Blackgrass plant response rating (0 to 10 scale),"blackgrass; Preemergence, Rate 250 g/ha",9
same,Blackgrass plant response rating,blackgrass; [6],9
